Measurements reported in patent publication EP3644968B1, “LEVOCLOPERASTINE FENDIZOATE SUSPENSION HAVING ENHANCED DISSOLUTION AND RESUSPENDABILITY” (Ilko Ilaç Sanayi Ve Ticaret Anonim Sirketi, priority 2017, dated 2019).

What was measured:
[1] = system: cough caused by tracheal mechanical stimulus; settings: guinea pig, relative to codeine; cited from earlier work
cough = settings: cited from earlier work
[2] = particle size distribution by laser diffraction (Malvern Mastersizer-2000, dry dispersion); format: physicochemical; settings: volume particle size distribution of the drug substance used
Method: Particle size is determined by laser light scattering using a particle size analyzer, such as the proprietary Mastersizer™ apparatus in a dry dispersion system available from Malvern Instruments Ltd. (Malvern Mastersizer-2000, single narrow mode). Laser diffraction enables to measure particle size distributions by measuring the angular variation by scattering light intensity as a laser beam passes through a dispersed particulate sample. Large particles scatter light at small angles relative to the laser beam and small particles scatter light at large angles. The angular scattering intensity data is then analyzed to calculate the size of the particles responsible for creating the scattering pattern, using the Mie theory of light scattering. The particle size is reported as a volume equivalent sphere diameter.
A common approach to define the distribution width is to cite three values on the x-axis as D10, D50 and D90. The D50, named as median, has been defined as the diameter where 50 percent of the distribution lies below this value. Similarly, D90 has been defined as 90 percent of the distribution lies below, and 10 percent of the population lies below the D10.

SMILES	efficacy against cough, times greater than codeine [1]	duration of action of a single dose (cough; single dose)	initial response after oral administration (cough; therapeutic dose range 10-20 mg three times daily for adults, oral)	d(0.1) [2]	d(0.5) [2]	d(0.9) [2]
Clc1ccc(C(OCCN2CCCCC2)c2ccccc2)cc1 (racemic) [cloperastine]	1.9 times	3 to 4 h	20 to 30 min			
Clc1ccc([C@@H](OCCN2CCCCC2)c2ccccc2)cc1.O=C(O)c1ccccc1C(=O)c1ccc(O)c(-c2ccccc2)c1 [Levocloperastine fendizoate]				d(0.1): 3.031 µm	d(0.5): 13.126 µm	d(0.9): 39.322 µm
